# According to the supplement of paper PMC10307832:
# Assays:
# Test in all cases: relative viability (nuclei count vs DMSO), 5 days (fraction); higher = more cells survive
# [1] = compound: CN(C)C[C@@H]1CCn2cc(c3ccccc32)C2=C(C(=O)NC2=O)c2cn(c3ccccc23)CCO1 [Ruboxistaurin] + CC(C)C[C@H](NC(=O)[C@H](Cc1ccccc1)NC(=O)c1cnccn1)B(O)O [Bortezomib] (partner 0.002 µM)
# Method in brief: (§1)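 The day after seeding in 1536-well plates, lung cancer cell lines were treated by pin tool with a single drug, or with a fixed anchor-drug dose together with five library-drug doses (not always all listed) in √10 steps. After 5 days, a combined fix-and-stain solution (final 0.05% Triton X-100, 1% formaldehyde, 1 ug/ml Hoechst) was added. Nuclei counted on 4× images gave relative viability as treated counts over vehicle counts, reported as the median of duplicate plates.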
# [2] = compound: CN(C)C[C@@H]1CCn2cc(c3ccccc32)C2=C(C(=O)NC2=O)c2cn(c3ccccc23)CCO1 [Ruboxistaurin] + CCNC(=O)c1noc(-c2cc(C(C)C)c(O)cc2O)c1-c1ccc(CN2CCOCC2)cc1 [Luminespib] (partner 0.01 µM)
# Method in brief: as §1
# [3] = compound: CN(C)C[C@@H]1CCn2cc(c3ccccc32)C2=C(C(=O)NC2=O)c2cn(c3ccccc23)CCO1 [Ruboxistaurin] + COc1cc2c(Oc3ccc(NC(=O)C4(C(=O)Nc5ccc(F)cc5)CC4)cc3F)ccnc2cc1OCCCN1CCOCC1 [Foretinib] (partner 0.25 µM)
# Method in brief: as §1
# [4] = compound: CN(C)C[C@@H]1CCn2cc(c3ccccc32)C2=C(C(=O)NC2=O)c2cn(c3ccccc23)CCO1 [Ruboxistaurin] + Cc1cc(Nc2cc(N3CCN(C)CC3)nc(Sc3ccc(NC(=O)C4CC4)cc3)n2)n[nH]1 [Tozasertib] (partner 0.1 µM)
# Method in brief: as §1
# [5] = compound: CN(C)C[C@@H]1CCn2cc(c3ccccc32)C2=C(C(=O)NC2=O)c2cn(c3ccccc23)CCO1 [Ruboxistaurin] + O=C(CCCCCCC(=O)Nc1ccccc1)NO [Vorinostat] (partner 1 µM)
# Method in brief: as §1
Cell Line,relative viability ([1]; first compound 0.08 µM),relative viability ([1]; first compound 0.8 µM),relative viability ([1]; first compound 2.53 µM),relative viability ([1]; first compound 8 µM),relative viability ([2]; first compound 0.08 µM),relative viability ([2]; first compound 0.8 µM),relative viability ([2]; first compound 2.53 µM),relative viability ([2]; first compound 8 µM),relative viability ([3]; first compound 0.08 µM),relative viability ([3]; first compound 0.8 µM),relative viability ([3]; first compound 2.53 µM),relative viability ([3]; first compound 8 µM),relative viability ([4]; first compound 0.08 µM),relative viability ([4]; first compound 0.8 µM),relative viability ([4]; first compound 2.53 µM),relative viability ([4]; first compound 8 µM),relative viability ([5]; first compound 0.08 µM),relative viability ([5]; first compound 0.8 µM),relative viability ([5]; first compound 2.53 µM),relative viability ([5]; first compound 8 µM)
LOU-NH91,0.475,0.473,0.443,0.457,0.286,0.298,0.361,0.369,1.02,0.879,0.898,0.944,0.744,0.509,0.674,0.76,0.954,0.868,0.958,0.878
NCI-H358,–,–,–,–,0.498,0.32,0.242,0.386,0.878,0.603,0.829,0.535,0.116,0.0986,0.118,0.0882,0.865,0.659,0.768,0.666
NCI-H522,–,–,–,–,1.23,1.1,0.974,1.04,–,–,–,–,0.502,0.502,0.563,0.524,1.01,0.9,1.05,0.931
NCI-H1395,–,–,–,–,0.918,0.66,0.769,0.488,0.993,0.904,1.02,0.911,0.774,0.709,0.79,0.7,0.813,0.739,0.707,0.688
NCI-H1703,0.401,0.319,0.382,0.237,–,–,–,–,0.367,–,0.408,0.327,–,–,–,–,–,–,–,–
NCI-H1792,0.995,0.928,0.915,1.03,0.431,0.317,0.375,0.32,–,–,–,–,–,–,–,–,–,–,–,–
NCI-H1793,–,–,–,–,0.148,0.152,0.172,0.188,0.637,0.576,0.652,0.687,0.346,0.242,0.408,0.301,0.87,–,1.08,0.821
NCI-H1944,–,–,–,–,0.406,0.632,0.72,0.726,0.933,0.844,0.856,0.719,0.249,0.206,0.239,0.237,0.552,0.552,0.558,0.427
NCI-H2170,–,–,–,–,0.779,0.649,0.758,0.522,1.02,1.02,1.05,1.05,0.719,0.737,0.686,0.745,0.856,0.775,0.854,0.855
SK-MES-1,–,–,–,–,0.928,0.65,0.859,0.363,1.08,0.791,0.969,0.858,0.948,0.808,0.887,0.789,1.11,1.03,1.03,0.95
SW 900,–,–,–,–,0.216,0.194,0.177,0.177,0.918,0.872,0.833,0.955,0.647,0.499,0.656,0.452,0.738,0.47,0.603,0.496
